Reference: US7435742B2, “Quinuclidine derivatives and pharmaceutical compositions containing the same” (Laboratorios Almirall S.A., priority 2002, dated 2008)

| melting point [°C] | SMILES |
| --- | --- |
| 133 | O=C(O[C@H]1C[N+]2(CCOc3ccccc3)CCC1CC2)N(Cc1cccs1)c1ccccc1.[Br-] |
| 110 | C=CC[N+]12CCC(CC1)[C@@H](OC(=O)N(Cc1cccs1)c1ccccc1)C2.[Br-] |
| 203 | C[N+]12CCC(CC1)[C@@H](OC(=O)N(CCc1ccccc1)c1ccccc1)C2.[Br-] |
| 95 | O=C(O[C@H]1C[N+]2(CCCc3cccs3)CCC1CC2)N(Cc1ccccc1)c1ccccc1.[Br-] |
| 117 | O=C(O[C@H]1C[N+]2(CCOc3ccccc3)CCC1CC2)N(Cc1ccccc1)c1ccccc1.[Br-] |

Second part, the compound before the results:

| SMILES | melting point [°C] |
| --- | --- |
| CCCCN(C(=O)O[C@H]1C[N+]2(CCCOc3ccc(F)cc3)CCC1CC2)c1ccccc1.[Cl-] | 126 |
| CCCCN(C(=O)O[C@H]1C[N+]2(CCCc3cccs3)CCC1CC2)c1ccccc1.[Br-] | 127 |
| O=C(O[C@H]1C[N+]2(CCOc3ccccc3)CCC1CC2)N(Cc1cc(F)c(F)c(F)c1)c1cccc(F)c1.[Br-] | 173.9 to 175.5 |
| O=C(O[C@H]1C[N+]2(CCOc3ccccc3)CCC1CC2)N(CC1CCCCC1)c1ccccc1F.[Br-] | 73.1 to 74.5 |
| O=C(O[C@H]1C[N+]2(CCCc3ccccc3)CCC1CC2)N(CC1CCCCC1)c1ccccc1F.[Br-] | 73.3 to 74.1 |
| O=C(O[C@H]1C[N+]2(CCCc3cccs3)CCC1CC2)N(Cc1cccs1)Cc1cccs1.[Br-] | 143 |
| Cc1cccc(N(Cc2cc(F)c(F)cc2F)C(=O)O[C@H]2C[N+]3(CCOc4ccccc4)CCC2CC3)c1.[Br-] | 137.3 to 139.1 |
